Among the data in patent US10618903B2, “Heteroaryl substituted aminopyridine compounds” (BRISTOL-MYERS SQUIBB COMPANY, priority 2015, dated 2020) are Papp, EC50 and IC50 values, retold here.

The nature of data set [1]: Caco Permeability Assay. Format: in vitro ADME. The note with it: human, Caco-2, Caco-2 cells, 3 μM compound.
Data set [2] has as its system IL-6 levels in human whole blood stimulated with a TLR2 agonist. Put plainly: IRAK4 Whole Blood Assay (lipoteichoic acid/TLR2-stimulated IL-6). Format: cell-based. The settings on record: Homo sapiens, lipoteichoic acid 10 μg/mL, IL-6 readout. Put shortly:
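IL-6 was quantified by cytometric bead assay in supernatants of human blood (ACD-A) stimulated for 5 h with lipoteichoic acid at 10 μg/mL final. Compound exposure preceded stimulation for 60 min at 37 °C, 5% CO2.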

Data set [3] deals with IRAK4 (Homo sapiens (Human), UniProt Q9NWZ3). Put plainly: IRAK4 Inhibition Assay. The settings on record: ATP 500 μM; IRAK4 0.6 nM. Format: biochemical. Put shortly:
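Readout: electrophoretic (LabChip) separation of fluorescent peptide substrate from phosphorylated product after EDTA quench. Reactions ran 60 min at room temperature with 0.6 nM IRAK4, 1.5 μM peptide and 500 μM ATP; inhibition referenced to no-enzyme (100%) and vehicle (0%) controls.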

IRAK4, sequence (Q9NWZ3 whole entry): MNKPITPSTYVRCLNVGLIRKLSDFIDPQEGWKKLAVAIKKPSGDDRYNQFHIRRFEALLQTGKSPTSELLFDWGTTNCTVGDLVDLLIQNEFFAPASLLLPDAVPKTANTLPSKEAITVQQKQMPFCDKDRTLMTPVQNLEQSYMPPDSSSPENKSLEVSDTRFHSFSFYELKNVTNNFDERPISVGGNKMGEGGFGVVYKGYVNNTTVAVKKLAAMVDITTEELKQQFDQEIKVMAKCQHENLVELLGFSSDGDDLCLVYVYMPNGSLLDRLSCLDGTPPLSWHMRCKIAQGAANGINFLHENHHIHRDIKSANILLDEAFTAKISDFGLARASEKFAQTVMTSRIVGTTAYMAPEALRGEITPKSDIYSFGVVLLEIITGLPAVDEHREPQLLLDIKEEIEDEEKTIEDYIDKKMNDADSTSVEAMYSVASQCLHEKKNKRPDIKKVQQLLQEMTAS

In turn, `CC(C)(C)CCNC(=O)c1cnc(-c2cnc3cc(Cl)cnn23)cc1NC1COC1` [Example 192, 6-(7-chloroimidazo[1,2-b]pyridazin-3-yl)-N-(3,3-dimethylbutyl)-4-(oxetan-3-ylamino)nicotinamide] showed a Papp at 2 h, 3 µM in data set [1] of 299 nm/s. Also, a half-maximal effect in data set [2] (EC50) was put at 0.5 µM. Also, the IC50 in data set [3] is 0.01 µM.

With `CNC(=O)c1ccc(Nc2cc(-c3cnn4cc(C#N)cnc34)ncc2C(=O)NC[C@@H](F)C(C)(C)O)cc1` [Example 110, (R)-6-(6-cyanopyrazolo[1,5-a]pyrimidin-3-yl)-N-(2-fluoro-3-hydroxy-3-methylbutyl)-4-((4-(methylcarbamoyl)phenyl)amino) nicotinamide], the Papp at 2 h, 3 µM in data set [1] was < 15 nm/s. The same compound yielded an EC50 in data set [2] of 0.27 µM. Also, in data set [3], the IC50 was 0.003 µM.

Take `CC1(Nc2cc(-c3cnc4cc(Cl)cnn34)ncc2C(=O)NC[C@H](F)C(C)(C)O)CC1` [Example 198, (S)-6-(7-chloroimidazo[1,2-b]pyridazin-3-yl)-N-(2-fluoro-3-hydroxy-3-methylbutyl)-4-((1-methylcyclopropyl)amino) nicotinamide]: the Papp at 2 h, 3 µM in data set [1] was found to be 184 nm/s. The response in data set [2] was half-maximal at 0.47 µM (EC50). Moreover, the IC50 in data set [3] was found to be 0.001 µM.

In turn, `CC(C)(O)[C@H](F)CNC(=O)c1cnc(-c2cnc3cc(Cl)cnn23)cc1NC1COC1` [Example 141, (R)-6-(7-chloroimidazo[1,2-b]pyridazin-3-yl)-N-(2-fluoro-3-hydroxy-3-methylbutyl)-4-(oxetan-3-ylamino)nicotinamide] came in with a Papp at 2 h, 3 µM in data set [1] of 52 nm/s. The EC50 in data set [2] was 0.49 µM. In data set [3], the IC50 amounted to 0.004 µM.

`CC(C)(O)[C@H](F)CNC(=O)c1cnc(-c2cnn3cc(Cl)cnc23)cc1Nc1cnn(CC(F)F)c1` [Example 71, (R)-6-(6-chloropyrazolo[1,5-a]pyrimidin-3-yl)-4-((1-(2,2-difluoroethyl)-1H-pyrazol-4-yl)amino)-N-(2-fluoro-3-hydroxy-3-methylbutyl)nicotinamide]: the Papp at 2 h, 3 µM in data set [1] came out at 17 nm/s. Moreover, a half-maximal response in data set [2] (EC50) required 0.07 µM. The IC50 in data set [3] amounted to 0.001 µM.

In data set [1], `CC(C)Nc1cc(-c2cnc3cc(C#N)cnn23)ncc1C(=O)NCCC(C)(C)O` [Example 186, 6-(7-cyanoimidazo[1,2-b]pyridazin-3-yl)-N-(3-hydroxy-3-methylbutyl)-4-(isopropylamino) nicotinamide] showed a Papp at 2 h, 3 µM of 122 nm/s. The midpoint of the response in data set [2], the EC50, lay at 0.25 µM. Also, in data set [3], the IC50 is 0.005 µM.

Take `CC(C)Nc1cc(-c2cnn3cc(Cl)cnc23)ncc1C(=O)N[C@H]1CC[C@H](NC(=O)[C@H](C)O)CC1` [Example 49, 6-(6-chloropyrazolo[1,5-a]pyrimidin-3-yl)-N-((1S,4r)-4-((S)-2-hydroxypropanamido)cyclohexyl)-4-(isopropylamino)nicotinamide]: in data set [1], the Papp at 2 h, 3 µM was < 15 nm/s. The compound further came in with an EC50 in data set [2] of 2.92 µM. In addition, the IC50 in data set [3] worked out at 0.018 µM.

As to `CC(CCF)Nc1cc(-c2cnn3cc(C#N)cnc23)ncc1C(=O)NC[C@@H](F)C(C)(C)O` (stereo partly drawn) [Example 106, 6-(6-cyanopyrazolo[1,5-a]pyrimidin-3-yl)-N—((R)-2-fluoro-3-hydroxy-3-methylbutyl)-4-((4-fluorobutan-2-yl)amino)nicotinamide], in data set [1], the Papp at 2 h, 3 µM turned out to be 70 nm/s. The EC50 in data set [2] stood at 1.03 µM. In addition, the IC50 in data set [3] is 0.004 µM.

Regarding `COCCn1cc(Nc2cc(-c3cnn4cc(C#N)cnc34)ncc2C(=O)NC[C@@H](F)C(C)(C)O)cn1` [Example 243, (R)-6-(6-cyanopyrazolo[1,5-a]pyrimidin-3-yl)-N-(2-fluoro-3-hydroxy-3-methylbutyl)-4-((1-(2-methoxyethyl)-1H-pyrazol-4-yl)amino)nicotinamide], in data set [1], the Papp at 2 h, 3 µM is < 15 nm/s. In data set [2], this compound had an EC50 of 0.16 µM. In data set [3], the IC50 came out at 0.003 µM.
